Assay results: patent US20100130725A1, “METHODS FOR CHARACTERIZING MOLECULES” (priority 2008, published 2010)

Legend:
quiescent A431 cells = experiment: Epic RWG biosensor DMR assay, agonist mode (primary profile), quiescent A431 cells; format: cell-based, human
Protocol: All cell lines were obtained from American Type Cell Culture (Manassas, Va.). The cell culture medium was as follows: Dulbecco's modified Eagle's medium (DMEM) supplemented with 10% fetal bovine serum (FBS), 4.5 g/liter glucose, 2 mM glutamine, and antibiotics for human epidermoid carcinoma A431 and human lung carcinoma A549.
Cells were typically grown using ˜1 to 2×10^4 cells per well at passage 3 to 15 suspended in 50 μl of the corresponding culture medium in the biosensor microplate, and were cultured at 37° C. under air/5% CO2 for ˜1 day. Except for A431, which was subject to ˜20 hr starvation through continuous culture in the serum-free DMEM, the other cell types were directly assayed without starvation. The confluency for all cells at the time of assays was ˜95% to 100%.
Epic® wavelength interrogation system (Corning Inc., Corning, N.Y.) was used for whole cell sensing. This system consists of a temperature-control unit, an optical detection unit, and an on-board liquid handling unit with robotics. The detection unit is centered on integrated fiber optics, and enables kinetic measures of cellular responses with a time interval of ˜15 sec.
The RWG biosensor is capable of detecting minute changes in local index of refraction near the sensor surface. Since the local index of refraction within a cell is a function of density and its distribution of biomass (e.g., proteins, molecular complexes), the biosensor exploits its evanescent wave to non-invasively detect ligand-induced dynamic mass redistribution in native cells. […]
For biosensor cellular assays, molecule solutions were made by diluting the stored concentrated solutions with the HBSS (1× Hanks balanced salt solution, plus 20 mM Hepes, pH 7.1), and transferred into a 384 well polypropylene molecule storage plate to prepare a molecule source plate. […] Both the cell assay plate and the molecule and marker source plate(s) were then incubated in the hotel of the reader system. After ˜1 hr of incubation the baseline wavelengths of all biosensors in the cell assay microplate were recorded and normalized to zero. […]

A431 cells = experiment: EGF-induced DMR signal in partially quiescent A431 cells (20 hr in 0.1% fetal bovine serum); format: cell-based, human; conditions: partially quiescent A431, 20 hour starvation in 0.1% fetal bovine serum
Text: EGFR belongs to the family of receptor tyrosine kinases. EGF binds to and stimulates the intrinsic protein-tyrosine kinase activity of EGFR, initiating a signal transduction cascade, principally involving the MAPK, […] and JNK pathways. Upon EGF stimulation, there are many events leading to mass redistribution in A431 cells—a cell line endogenously over-expressing EGFRs. It is known that EGFR signaling depends on cellular status. As a result, the EGF-induced DMR signals are also dependent on the cellular status. In quiescent cells obtained through 20 hr culturing in 0.1% fetal bovine serum, EGF stimulation leads to a DMR signal with three distinct and sequential phases: (i) a positive phase with increased signal (P-DMR), (ii) a transition phase, and (iii) a decay phase (N-DMR). […]
An Epic® cellular assay was conducted on partially quiescent A431 cells obtained through 1 day culture with serum containing medium followed by 20 hour starvation culturing in a medium containing 0.1% fetal bovine serum. […] Chemical biology and cell biology studies have shown that this EGF-induced DMR signal is primarily linked to the Ras/MAPK pathway, which proceeds through MEK and leads to cell detachment (Fang, Y., et al., (2005) “Characteristics of dynamic mass redistribution of EGF receptor signaling in living cells measured with label free optical biosensors”. Anal. Chem., 77, 5720-5725).

## epidermal growth factor [EGF]
Quiescent A431 cells; fully quiescent A431 cells
  EC80 for triggering the DMR signal: ~32 nM
Quiescent A431 cells; fully quiescent A431 cells, EGF 32 nM, average of 32 replicates
  DMR signal triggered by EGF: distinct and robust DMR signal
Quiescent A431 cells; quiescent A431 cells, data not shown
  DMR response as a function of EGF dose: dose-dependent response
A431 cells
  DMR signal triggered by EGF: DMR signal with two distinct and sequential phases
